Source: patent US6569903B2, “Ophthalmic compositions” (Rohto Pharmaceutical Co., Ltd., priority 1999, dated 2003)
Structures can show the parent of a compound that is named as a salt.

Experiments:
[1] = system: Japanese albino strain male rabbits; test: Tear secretion promoting action of eye drops (Test Example 1); format: in vivo, rabbit; details: 0.1 w/v % eye drops, 50 μl instilled into one eye, vs basal secretion amount
Description: Using Japanese albino strain male rabbits, eye drops containing adrenergic β receptor agonists were examined for their tear secretion promoting actions.
Prior to use, each adrenergic β receptor agonist was dissolved in a phosphate buffer solution to prepare a 0.1 w/v % solution, which was adjusted to the pH ranging 6.0 to 7.5. Compounds used in this experiment are shown below. The phosphate buffer solution served as control.
Six rabbits (12 weeks old, weighing 2.0 to 2.5 kg) were used in each group. A test solution (50 μl) was instilled into one eye of the rabbit, and amounts of tears secreted were measured for 5 minutes from 15 to 10 min prior to the instillation of the test solution, for 5 minutes from 5 to 10 min and for 5 minutes from 20 to 25 min after the instillation, three times in total, by the following method. A local anesthetic, 0.4 w/v % oxybuprocaine hydrochloride solution (Santen Pharmaceutical) (50 μl) was instilled into one eye of the rabbit, 5 min later the remaining eye drops and tears were once soaked up using a water absorbing paper, and then a previously weighed filter paper (5×35 mm) was inserted in the lower eyelid area. Five minutes later, the filter paper was recovered, weighed and the increment in weight was taken as the amount of secreted tears. With the amount of secreted tears prior to the instillation of a test solution taken as a basal secretion amount, ratios of increases in the amount of secreted tears to the basal secretion amount were used as the rate of increase in the tear secretion (%).

[2] = system: Japanese albino strain male rabbits; test: Tear protein secretion promoting action of eye drops (Test Example 2); format: in vivo, rabbit; details: 0.1 w/v % eye drops, 50 μl instilled into one eye, vs basal concentration
Description: Using Japanese albino strain male rabbits, eye drops containing adrenergic β receptor agonists were examined for their actions to promote the tear protein secretion.
Prior to use, each adrenergic β receptor agonist was dissolved in a phosphate buffer solution to prepare 0.1 w/v % solution, and adjusted to the pH ranging 6.0 to 7.5. Compounds and compositions of eye drops used in this experiment are shown below using the phosphate buffer solution as control.
Six rabbits (12 weeks old, weighing 2.0 to 2.5 kg) were used in each group. A test solution (50 μl) was instilled into one eye of the rabbit, and protein concentrations in tears were measured for 5 minutes from 15 to 10 min prior to the instillation of the test solution, for 5 minutes from 5 to 10 min and for 5 minutes from 20 to 25 min after the instillation, three times in total, using the following method. A local anesthetic, 0.4 w/v % oxybuprocaine hydrochloride solution (Santen Pharmaceutical) (50 μl) was instilled into one eye of the rabbit, 5 min later the remaining eye drops and tears were once soaked up using a water absorbing paper, and then a previously weighed filter paper (5×35 mm) was inserted in the lower eyelid area. Five minutes later, the filter paper was recovered, weighed and the increment in weight was taken as the amount of secreted tears. Immediately after measuring the amount of secreted tears, the filter paper thus recovered was placed in a 1.5-ml test tube, 1 ml of the phosphate buffer solution (pH 7.4) was added thereto, and the test tube was stirred for 30 s. After the removal of the filter paper followed by the centrifugation of the solution at 3,000 rpm for 5 min, a stain reagent of Bio-Rad protein assay kit was added to the supernatant to measure the amount of protein and calculate the total amount of protein in the filter paper. From the total amount of protein and that of secreted tears, the protein concentration in tears was calculated.
With the protein concentration in tears prior to the instillation of a test solution taken as a basal protein concentration, ratios of increases in respective protein concentrations relative to the basal protein concentration were used as the rate of increase in protein concentration in tears (%)

β2 adrenergic receptor = target: T1, β2 adrenergic receptor (Cavia porcellus, UniProt Q8K4Z4); details: cited from earlier work
T1 construct: a relaxation of smooth muscle (EC50) in an excised trachea or uterus; from tissue; host or cells: excised trachea (tracheal smooth muscle)
T1 sequence (Q8K4Z4 whole entry): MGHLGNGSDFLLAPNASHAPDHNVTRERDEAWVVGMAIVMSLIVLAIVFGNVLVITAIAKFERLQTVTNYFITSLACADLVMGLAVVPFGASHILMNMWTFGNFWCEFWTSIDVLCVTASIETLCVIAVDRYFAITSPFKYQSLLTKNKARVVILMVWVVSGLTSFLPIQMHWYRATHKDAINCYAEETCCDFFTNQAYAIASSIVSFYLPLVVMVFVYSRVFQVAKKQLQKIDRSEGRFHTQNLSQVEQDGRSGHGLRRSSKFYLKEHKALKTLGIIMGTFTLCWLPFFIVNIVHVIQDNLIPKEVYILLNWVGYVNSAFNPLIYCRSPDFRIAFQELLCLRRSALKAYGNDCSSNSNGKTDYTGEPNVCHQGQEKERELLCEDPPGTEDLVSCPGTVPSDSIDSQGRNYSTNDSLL

[3] = system: Japanese albino strain male rabbits; test: Tear secretion after systemic (ear vein) administration (Test Example 3); format: in vivo, rabbit; details: for Rate of increase in tear secretion (%): 50 μg/rabbit into the ear vein
Description: (§1) Using Japanese albino strain male rabbits, injections containing selective adrenergic β2 receptor agonists were examined for their actions to promote the tear secretion and the protein secretion in tears.
(§2) Prior to use, clenbuterol hydrochloride was dissolved in a physiological saline (concentration 50 μg/ml), and adjusted to the pH in the range 6.0 to 7.5. The physiological saline was used as control.
(§3) Six rabbits (11 to 12 weeks old, weighing 2.4 to 2.6 kg) were used in each group. The test solution (50 μg/rabbit) was administered into the ear vein, and amounts of tears secreted were measured 15 to 10 min prior to the administration of the test solution, 5 to 10 min, 20 to 25 min, 40 to 45 min, 60 to 65 min and 120 to 125 min after the administration, six times in total, by the following method. A local anesthetic, 0.4 w/v % oxybuprocaine hydrochloride solution (Santen Pharmaceutical) (50 μl) was instilled into one eye of a rabbit, 5 min later the remaining eye drops and tears were once soaked up using a water absorbing paper, and then a previously weighed filter paper (5×35 mm) was inserted in the lower eyelid area. Five minutes later, the filter paper was recovered, weighed and the increment in weight was taken as the amount of secreted tears. After measuring the amount of secreted tears, the filter paper thus recovered was placed in a 1.5-ml test tube, 1 ml of the phosphate buffer solution (pH 7.4) was added thereto, and the test tube was vortexed for 30 s. After the removal of the filter paper, followed by the centrifugation at 3,000 rpm for 5 min, a stain reagent of Bio-Rad protein assay kit was added to the supernatant to measure the amount of protein and calculate a total amount of protein in the filter paper. From the total amount of protein and that of secreted tears, the protein concentration in tears was calculated. With the amount of secreted tears prior to the administration of a test solution taken as the basal secretion amount, ratios of increases in the secreted tears to the basal secretion amount were used as the rate of increase in the tear secretion (%). In addition, with the protein concentration in tears prior to the administration of a test solution taken as the basal protein concentration, ratios of increases in respective protein concentrations relative to the basal protein concentration were used as the rate of increase in protein concentration in tears (%).

[4] = system: Japanese albino strain male rabbits; test: Protein concentration in tears after systemic (ear vein) administration (Test Example 3); format: in vivo, rabbit; details: for Rate of increase in protein concentration in tears (%): 50 μg/rabbit into the ear vein
Description: as §1, §2, §3

[5] = for 5 minutes from 5 to 10 min after instillation
[6] = for 5 minutes from 20 to 25 min after instillation
[7] = 120-125 min after administration
[8] = intravenous administration, result in words

Compound | Rate of increase in tear secretion [1, 5] | Rate of increase in tear secretion [1, 6] | Rate of increase in tear protein concentration [2, 5] | Rate of increase in tear protein concentration [2, 6] | Relative specificity to the tracheal smooth muscle, higher than that of isoproterenol (β2 adrenergic receptor) | other results
CC(Cc1ccc(O)cc1)NCC(O)c1cc(O)cc(O)c1 (stereo not drawn) [Fenoterol hydrobromide, fenoterol hydrobromide] | 144% | 49% | 16% | 43% | about 20 times | –
CC(CCc1ccc(O)cc1)NCCc1ccc(O)c(O)c1 (stereo not drawn) [Dobutamine, dobutamine hydrochloride] | 8% | −29% | 9% | −19% | – | –
CC(C)(C)NCC(O)c1cc(Cl)c(N)c(Cl)c1 (stereo not drawn) [Clenbuterol hydrochloride, clenbuterol hydrochloride] | 36% | 29% | 16% | 53% | about 7000 times | Rate of increase in tear secretion (%) ([3]; 5-10 min after administration): 155%; Rate of increase in tear secretion (%) ([3]; 20-25 min after administration): 146%; Rate of increase in tear secretion (%) ([3]; 40-45 min after administration): 133%; Rate of increase in tear secretion (%) ([3]; 60-65 min after administration): 68%; Rate of increase in tear secretion (%) [3, 7]: 58%; Amount of tear secretion [3, 8]: significant increases; Rate of increase in protein concentration in tears (%) ([4]; 5-10 min after administration): 139%; Rate of increase in protein concentration in tears (%) ([4]; 20-25 min after administration): 148%; Rate of increase in protein concentration in tears (%) ([4]; 40-45 min after administration): 179%; Rate of increase in protein concentration in tears (%) ([4]; 60-65 min after administration): 188%; Rate of increase in protein concentration in tears (%) [4, 7]: 171%; Protein concentration in tears [4, 8]: significant increases
CC(C)(C)NCC(O)c1ccc(O)c(CO)n1 (stereo not drawn) [pirbuterol] | – | – | – | – | about 260 times | –
CC(C)(C)NCC(O)c1ccc(O)c(CO)c1 (stereo not drawn) [salbutamol] | – | – | – | – | about 30 times | –
CCC(NC(C)C)C(O)c1ccc(O)c2[nH]c(=O)ccc12 (stereo not drawn) [Procaterol hydrochloride, procaterol hydrochloride] | 118% | 43% | 76% | 109% | about 2000 times | –
